Data on two compounds can be found in patent US20220315572A1, “SUBSTITUTED CYANOPYRROLIDINES WITH ACTIVITY AS USP30 INHIBITORS” (MISSION THERAPEUTICS LIMITED, priority 2019, published 2022).

Bounds are passed on as bounds.

One series addresses T1, USP30 (Homo sapiens, UniProt Q70CQ3).
T1 construct: purchased Boston Biochem E582
T1 sequence (Q70CQ3 57-517 limits assumed): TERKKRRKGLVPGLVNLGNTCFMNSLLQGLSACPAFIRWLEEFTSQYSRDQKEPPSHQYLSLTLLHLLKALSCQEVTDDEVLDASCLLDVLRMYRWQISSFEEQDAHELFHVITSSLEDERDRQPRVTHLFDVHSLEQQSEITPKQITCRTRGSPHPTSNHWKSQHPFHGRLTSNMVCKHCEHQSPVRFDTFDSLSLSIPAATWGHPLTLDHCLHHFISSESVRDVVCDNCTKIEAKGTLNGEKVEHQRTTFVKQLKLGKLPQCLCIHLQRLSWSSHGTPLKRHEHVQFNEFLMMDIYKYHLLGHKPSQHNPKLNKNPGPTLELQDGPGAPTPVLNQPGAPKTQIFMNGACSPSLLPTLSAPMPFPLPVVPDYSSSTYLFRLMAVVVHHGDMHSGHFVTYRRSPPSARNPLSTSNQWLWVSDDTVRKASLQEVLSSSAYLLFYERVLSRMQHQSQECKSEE
In words: USP30 biochemical IC50 assay (fluorescence polarisation). Particulars: for IC50: USP30 biochemical IC50 assay, exemplary compounds, read-out: IC50; for fold more potent against USP30 than Reference Example A: v Reference Example A; for fold more potent against USP30 than Reference Example E: v Reference Example E; for fold more potent against USP30 than Reference Example F: v Reference Example F; for fold more potent against USP30 than Reference Example G: v Reference Example G. The method, then: Dilution plates were prepared at 21 times the final concentration (2100 μM for a final concentration of 100 μM) in 50% DMSO in a 96-well polypropylene V-bottom plate (Greiner #651201). A typical 8-point dilution series would be 100, 30, 10, 3, 1, 0.3, 0.1, 0.03 μM final. Reactions were performed in duplicate in black 384 well plates (small volume, Greiner 784076) in a final reaction volume of 21 μl. Either […] of 50% DMSO or diluted compound was added to the plate. USP30 (Boston Biochem #E582) was diluted in reaction buffer (40 mM Tris, pH 7.5, 0.005% Tween 20, 0.5 mg/ml BSA, 5 mM beta-mercaptoethanol) to achieve a final assay concentration of 4 nM, and 10 μl of diluted USP30 was added to the compound. Enzyme and compound were incubated for 30 min at room temp. Reactions were initiated by the addition of 50 nM of TAMRA labelled peptide linked to ubiquitin via an iso-peptide bond as fluorescence polarisation substrate. Reactions were read immediately after addition of substrate and following a 2-hour incubation at room temperature. Readings were performed on a Pherastar Plus (BMG Labtech). λ Excitation 540 nm; λ Emission 590 nm.
A general note: In fluorescence polarisation assays a small probe gives low polarisation when free and higher when bound to something large.

The target of another series is T2, Cathepsin K (Homo sapiens, UniProt P43235).
T2 sequence (P43235 115-329): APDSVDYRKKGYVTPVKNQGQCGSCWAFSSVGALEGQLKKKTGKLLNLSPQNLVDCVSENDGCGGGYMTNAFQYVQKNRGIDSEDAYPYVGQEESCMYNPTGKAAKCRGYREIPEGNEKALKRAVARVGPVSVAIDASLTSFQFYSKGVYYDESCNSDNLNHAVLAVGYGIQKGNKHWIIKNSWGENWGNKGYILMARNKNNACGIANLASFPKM
The series can be described thus: Cathepsin IC50, cathepsin K. The class given is biochemical.

In series [1] the test system is UCHL1, USP2, USP4, USP8, USP10, USP12/UAF1, USP15, USP16, USP21, USP22, USP25, USP28, USP35, USP36, USP46/UAF1. In words: DUB biochemical IC50 assays, off-target panel. As to conditions: bound over all 15 DUBs listed.
The subject of series [2] is Eurofins CEREP SafetyScreen44 panel. The series can be described thus: Eurofins CEREP SafetyScreen44 panel. The class given is binding. As to conditions: single concentration of 10 μM, all targets in the panel. An excerpt: Aside from selectivity over other DUB enzymes, it is important for a drug to have low affinity for other targets, and pharmacological profiling may be performed against panels of targets to assess the potential for, and to minimise, potential off-target effects. Examples of targets for which the compounds of the present invention may be screened against are those of the industry standard Eurofins-Cerep SafetyScreen44 panel, which includes 44 targets as a representative selection of GPCR receptors, transporters, ion channels, nuclear receptors, and kinase and non-kinase enzymes. Preferably, compounds of the invention have insignificant affinity against targets of this screening panel. Further examples of targets for which the compounds of the present invention may be screened against are kinases of the Thermo Fisher SelectScreen kinase profiling panel, which includes 39 targets as a representative selection of kinase enzymes. Preferably, compounds of the invention have insignificant affinity against targets of this screening panel. Additionally, examples of a particular enzyme class for which the compounds of the present invention may be screened against are the cathepsins (e.g. cathepsin A, B, C, H, K, L, S, V and Z). Preferably, compounds of the invention have good selectivity for USP30 over one or more of these enzymes. […]

A short description of a further series: FaSSIF solubility. The class given is physicochemical. Particulars: simulated intestinal fluid, fasted state. An excerpt: FaSSIF: simulated intestinal fluid in fasted state measured at pH 6.5.
The nature of another series: Mouse plasma stability. Type of series: in vitro ADME. Particulars: read-out: Stability Mouse plasma t1/2. The source says: Other parameters that may be measured using standard assays that are indicative of a compound's exposure profile include, for example plasma stability (half-life measurement), blood AUC, Cmax, Cmin and Tmax values.
In another series the test system is UUO injured kidneys. The series can be described thus: Unilateral ureteral obstructive kidney disease model (UUO). Type of series: in vivo, C57BL/6 mice. As to conditions: 10 days. The source says: (f) The unilateral ureteral obstructive kidney disease model (UUO). [Chevalier et al, 2009, Kidney Int 75(11): 1145-1152] UUO causes renal injury characterised by tubular cell injury, interstitial inflammation and fibrosis. It serves as a model of irreversible post-renal acute kidney injury (AKI). Experimental UUO has illustrated the molecular mechanisms of apoptosis, inflammation and fibrosis, all of which are key processes in renal injury, regardless of the primary insult. Consequently, the UUO model provides investigators information beyond obstruction. Example 1 was assessed in the UUO model to determine the ability of the compound to attenuate progressive tubulointerstitial fibrosis and chronic kidney disease (CKD). On day 1 of the study, adult C57BL/6 mice were dosed by oral gavage according to one of the following dosing regimens; Vehicle or 5 mg/kg Example 1 BID. Two hours post dosing on day 1 study mice underwent surgery to ligate the left ureter at two points. Successful UUO surgery was later confirmed by observation of dilation of renal pelvis due to hydronephrosis. The animals were dosed according to their prescribed regimen for 10 days at which point kidneys were harvested, or histopathology assessment and for protein/RNA assessment. […]

In general, IC50 refers to the concentration that inhibits the measured activity by half. Consider `N#Cc1cccc(-c2nnc(C(=O)N[C@@H]3C[C@@H](CF)N(C#N)C3)o2)c1` [Example 3, N-((3R,5S)-1-Cyano-5-(fluoromethyl)pyrrolidin-3-yl)-5-(3-cyanophenyl)-1,3,4-oxadiazole-2-carboxamide], for which the IC50 on USP30 came to 13 nM. On USP30 (biochemical assay), the “fold more potent against USP30 than Reference Example A” value is reported as 5.4 fold, the “fold more potent against USP30 than Reference Example E” value stood at 24 fold, the “fold more potent against USP30 than Reference Example F” value was determined as 54 fold and the “fold more potent against USP30 than Reference Example G” value worked out at 338 fold. Also, the “fold more potent against USP30 than Reference Example B” value on USP30 (biochemical assay, v Reference Example B) worked out at 3.4 fold. The “fold more potent against USP30 than Reference Example C” value at USP30 (biochemical assay, v Reference Example C) is 2 fold. Also, the “fold more potent against USP30 than Reference Example D” value on USP30 (biochemical assay, v Reference Example D) was found to be 3.2 fold. It took 18.8 µM to reach half-maximal inhibition at Cathepsin K (IC50).
Broadly, the melting point is the temperature, or range, at which the solid turns liquid. In turn, `C[C@@H]1C[C@@H](NC(=O)c2nnc(-c3cccc(C#N)c3)o2)CN1C#N` [Example 1, N-((3R,5R)-1-Cyano-5-methylpyrrolidin-3-yl)-5-(3-cyanophenyl)-1,3,4-oxadiazole-2-carboxamide] gave a melting point of 152 to 154 °C. Moreover, the IC50 at USP30 turned out to be 29 nM. Moreover, on USP30 (biochemical assay), the “fold more potent against USP30 than Reference Example A” value came out at 2.4 fold, the “fold more potent against USP30 than Reference Example E” value is given as 10.7 fold, the “fold more potent against USP30 than Reference Example F” value is 24 fold and the “fold more potent against USP30 than Reference Example G” value came to 152 fold. The compound further gave an IC50 in series [1] of at least 5.8 µM. On Cathepsin K, the IC50 was found to be 26.2 µM. In addition, the “inhibition of binding or enzyme activity” value in series [2] is on record as “less than 25%”. Further, the “FaSSIF (μM) measured at pH 6.5” value in “FaSSIF solubility” is 415 μM. The half-life in the series “Mouse plasma stability” is over 2000 min. Also, in the series with UUO injured kidneys (5 mg/kg oral BID, compared to vehicle treated controls), the “α-SMA levels in UUO injured kidneys” value is “statistically reduced α-SMA levels”. For the same compound, the “collagen deposition, picrosirius red staining in ligated kidneys” value in the series on UUO injured kidneys (5 mg/kg p.o. BID) was “statistically reduced collagen deposition”.
